One assay relates to IL-6. The assay is described as follows: Lung IL-6 mRNA, CLP mice. In kind it is in vivo, mouse. Conditions: 20 h; for lung IL-6 mRNA (Figure 6G): 10 mg/kg NDI, vs sham, individual mice. On the procedure: Sepsis was induced in mice by cecal ligation and puncture (CLP) as described previously ([45], [46]). Mice were anesthetized with isoflurane to a surgical plane and placed in a supine position. CLP was performed through a midline laparotomy. The abdomen was shaved and disinfected. Through a 2 cm midline incision, the cecum was exposed and then ligated with a 4-0 silk suture 1 cm proximal from the distal cecal extremity. For 20-hour CLP experiments, the cecum was punctured twice with a 22-gauge needle. A small amount of cecal content was extruded through both holes, and the ligated cecum was returned to the peritoneal cavity. The wound was closed in layers. For 10-day sepsis survival studies, the cecum was punctured once with a 22-gauge needle. A small amount of cecal content was extruded. Mice were allocated to the vehicle and adoptive transfer of DLL4^+ neutrophils or DLL4^– neutrophils groups. Adoptive transfer mice received a retro-orbital injection of 1 × 10^6 cells per mouse DLL4^+ neutrophils or DLL4^– neutrophils in […] phosphate-buffered saline (PBS) immediately after abdominal closure in both the 20-hour experiments and the survival study. Vehicle groups received an equivalent volume of PBS, while treatment groups received NDI 10 mg/kg in […] PBS via retro-orbital injection after CLP. This dose was chosen primarily on the basis of our laboratory’s prior experience, we have consistently used this dose in mouse CLP models with reproducible efficacy and without observable toxicity ([39], [44]). Sham-operated animals underwent a laparotomy without CLP. After closure, the mice received a subcutaneous injection of 0.5 mL of normal saline to overcome surgery-induced dehydration. For 20-hour experiments, animals were not injected with antibiotics; however, for survival studies, animals were given 0.5 mg per kg body weight imipenem (lot 4D21K05, WG Critical Care LLC) subcutaneously in 0.5 mL saline once at the end of CLP. All mice were subcutaneously injected with a single dose of 0.1 mg/kg buprenorphine after CLP. […]

A further assay concerns p-MLKL. The assay is described as follows: p-MLKL/MLKL (necroptosis) in PVECs cocultured with neutrophils, Western blot. In kind it is cell-based, mouse. The following applies: for p-MLKL/MLKL (Figure 4I): 10 μM peptide, 16 h, individual replicates. On the procedure: Wild-type PVECs (5 × 10^5) were cocultured with sorted DLL4^+ neutrophils (5 × 10^5) or DLL4^– neutrophils (5 × 10^5) and then treated with different dosages of peptides or 10 μM DAPT (Thermo Fisher Scientific), 10 μM NDI (GenScript), or 10 μM NDI scramble (GenScript). Notch1-knockdown PVECs (5 × 10^5) were cocultured with sorted DLL4^+ neutrophils (5 × 10^5). After 16 hours, neutrophils were washed away by PBS, and PVECs were collected for further experiments. Cell viability was evaluated by propidium iodide staining using the FITC Annexin V Apoptosis Detection Kit I (catalog 556547, BD Pharmingen). Cell death was quantified as the percentage of propidium iodide–positive cells by flow cytometry.
PVECs and lung tissue were collected in previous steps. Whole-cell proteins were extracted, and the protein concentration was measured using an ABC protein assay kit (catalog 5000002, Bio-Rad). Proteins were separated using NuPAGE 4%–12% Bis-Tris gels (Invitrogen), transferred to PVDF membranes, and immunoblotted with the antibodies indicated in the figure legends according to the manufacturer’s recommendations. The ZBP1 antibody (catalog PA5-20455; 1:1,000) used in this study was obtained from Thermo Fisher Scientific, and the c-GSDMD (catalog 10137S; 1:250), GSDMD (catalog 39754S; 1:1000), c-caspase-3 (catalog 9661L; 1:250), caspase-3 (catalog 9662S; 1:1,000), p-MLKL (catalog 37333S; 1:250), MLKL (catalog 37705S; 1:1,000), N1ICD (c-Notch1) (catalog 4147S; 1:250), and Notch1 (catalog 3608S; 1:1,000) antibodies were obtained from Cell Signaling Technology. GAPDH (catalog 60004-1-Ig; 1:10,000) and β-actin (catalog A5441, Sigma-Aldrich; 1:5,000) were obtained from ProteinTech. After the blots were incubated with primary antibodies, the membranes were washed 3 times, and the blots were subsequently incubated with the corresponding fluorescent secondary antibody (LI-COR). Bands were detected using an Odyssey FC Dual-Mode Imaging system 2800 (LI-COR).

These results are taken from article PMC12700550, “DLL4^+ neutrophils promote Notch1-mediated endothelial PANoptosis to exacerbate acute lung injury in sepsis” (The Journal of Clinical Investigation, 2025).

Values joined by “and” are separate entries in the source; they are usually repeats but may differ in a detail not shown here. Equal values may be shown once.

ECAGSPCHNGGTCEDGI [NDI]: the “effect on lung IL-6 mRNA” value with IL-6 (DLL4^+ neutrophil-injected CLP mice, 10 mg/kg) is “significantly decreased the mRNA expression of TNF-α, IL-6, and KC in lung tissues”. Moreover, the “lung IL-6 mRNA (Figure 6G)” value with IL-6 (DLL4^+ neutrophils + CLP) was 1.4984 fold change and 1.1005 fold change and 1.349 fold change and 4.056 fold change and 2.97 fold change and 2.032 fold change and 0.08381 fold change and 1.663 fold change and 5.861 fold change and 2.132 fold change and 6.132 fold change; in the assay with IL-6 (DLL4^– neutrophils + CLP), 2.369 fold change and 4.979 fold change and 4.806 fold change and 5.561 fold change and 5.531 fold change and 4.244 fold change and 1.214 fold change and 2.2297 fold change and 4.655 fold change. Moreover, in the assay with p-MLKL (10 μM NDI, DLL4^+ neutrophil coculture), the “effect on p-MLKL” value is “significantly reduced these markers of PANoptosis”. Further, the “p-MLKL/MLKL (Figure 4I)” value in the assay with p-MLKL (DLL4^+ neutrophil coculture) is 1.115 and 1.398 and 1.246 and 1.299 and 0.9429 and 1.577 and 2.352; in the assay on p-MLKL (DLL4^– neutrophil coculture), 0.4818 and 0.8655 and 0.6799 and 0.9484.
